The kinase profiling compilation of Christmann-Franck et al. (2016)

Experiments:
Assay in all cases: radiometric filter-binding kinase assay, Kinase HotSpot
Conditions in all cases: compound 0.5 µM; ATP 10 µM
ABL2 (human) = ABL2 (human) (UniProt P42684)
ACVRL1 (human) = ACVRL1 (human) (UniProt P37023)
CAMK1D (human) = CAMK1D (human) (UniProt Q8IU85)
CDC42BPB (human) = CDC42BPB (human) (UniProt Q9Y5S2)
CDK7 CCNH MNAT1 (human) = CDK7 CCNH MNAT1 (human) (UniProt P50613+P51948+P51946)
CDK9 CCNK (human) = CDK9 CCNK (human) (UniProt O75909+P50750)
CDK9 CCNT1 (human) = CDK9 CCNT1 (human) (UniProt P50750+O60563)
CSNK1G3 (human) = CSNK1G3 (human) (UniProt Q9Y6M4)
DAPK2 (human) = DAPK2 (human) (UniProt Q9UIK4)
DSTYK (human) = DSTYK (human) (UniProt Q6XUX3)
DYRK1B (human) = DYRK1B (human) (UniProt Q9Y463)
DYRK4 (human) = DYRK4 (human) (UniProt Q9NR20)
EPHA6 (human) = EPHA6 (human) (UniProt Q9UF33)
FGFR4 (human) = FGFR4 (human) (UniProt P22455)
FLT3 (human) = FLT3 (human) (UniProt P36888)
GRK5 (human) = GRK5 (human) (UniProt P34947)
GSK3B (human) = GSK3B (human) (UniProt P49841)
JAK2 JH1 JH2 (human) = JAK2 JH1 JH2 (human) (UniProt O60674)
JAK3 JH1 JH2 (human) = JAK3 JH1 JH2 (human) (UniProt P52333)
LIMK1 (human) = LIMK1 (human) (UniProt P53667)
MAP2K1 (human) = MAP2K1 (human) (UniProt Q02750)
MAP3K10 (human) = MAP3K10 (human) (UniProt Q02779)
MAPKAPK5 (human) = MAPKAPK5 (human) (UniProt Q8IW41)
MARK1 (human) = MARK1 (human) (UniProt Q9P0L2)
MERTK (human) = MERTK (human) (UniProt Q12866)
NTRK2 (human) = NTRK2 (human) (UniProt Q16620)
NUAK1 (human) = NUAK1 (human) (UniProt O60285)
PAK1 (human) = PAK1 (human) (UniProt Q13153)
PAK2 (human) = PAK2 (human) (UniProt Q13177)
PBK (human) = PBK (human) (UniProt Q96KB5)
PDPK1 (human) = PDPK1 (human) (UniProt O15530)
PLK3 (human) = PLK3 (human) (UniProt Q9H4B4)
PNCK (human) = PNCK (human) (UniProt Q6P2M8)
PRKCD (human) = PRKCD (human) (UniProt Q05655)
PRKCE (human) = PRKCE (human) (UniProt Q02156)
PRKG2 (human) = PRKG2 (human) (UniProt Q13237)
SRPK1 (human) = SRPK1 (human) (UniProt Q96SB4)
TAOK2 (human) = TAOK2 (human) (UniProt Q9UL54)
TGFBR2 (human) = TGFBR2 (human) (UniProt P37173)
[1] = target: TYK2 JH1 catalytic (human) (UniProt P29597)
YES1 (human) = YES1 (human) (UniProt P07947)

CDK9 CCNT1 (human), sequence (O60563 whole entry, looked up): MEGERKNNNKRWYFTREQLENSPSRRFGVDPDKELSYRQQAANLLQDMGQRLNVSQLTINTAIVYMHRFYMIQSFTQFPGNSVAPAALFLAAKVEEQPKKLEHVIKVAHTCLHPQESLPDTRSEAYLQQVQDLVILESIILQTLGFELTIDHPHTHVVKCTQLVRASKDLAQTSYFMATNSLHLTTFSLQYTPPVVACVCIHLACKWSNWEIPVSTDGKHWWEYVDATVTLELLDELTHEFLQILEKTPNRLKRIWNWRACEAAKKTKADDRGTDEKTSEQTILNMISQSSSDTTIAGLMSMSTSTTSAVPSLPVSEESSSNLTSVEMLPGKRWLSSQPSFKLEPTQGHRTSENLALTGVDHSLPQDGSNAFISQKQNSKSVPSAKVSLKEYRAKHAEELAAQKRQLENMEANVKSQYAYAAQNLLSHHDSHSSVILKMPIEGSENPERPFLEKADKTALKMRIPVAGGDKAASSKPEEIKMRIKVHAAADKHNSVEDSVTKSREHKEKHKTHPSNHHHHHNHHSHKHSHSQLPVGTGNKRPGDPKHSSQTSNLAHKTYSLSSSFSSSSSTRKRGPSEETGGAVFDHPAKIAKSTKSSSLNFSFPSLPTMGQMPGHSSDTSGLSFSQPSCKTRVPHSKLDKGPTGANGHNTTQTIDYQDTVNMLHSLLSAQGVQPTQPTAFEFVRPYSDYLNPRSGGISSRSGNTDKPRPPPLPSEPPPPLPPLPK
CDK9 CCNT1 (human), sequence (P50750 whole entry, looked up): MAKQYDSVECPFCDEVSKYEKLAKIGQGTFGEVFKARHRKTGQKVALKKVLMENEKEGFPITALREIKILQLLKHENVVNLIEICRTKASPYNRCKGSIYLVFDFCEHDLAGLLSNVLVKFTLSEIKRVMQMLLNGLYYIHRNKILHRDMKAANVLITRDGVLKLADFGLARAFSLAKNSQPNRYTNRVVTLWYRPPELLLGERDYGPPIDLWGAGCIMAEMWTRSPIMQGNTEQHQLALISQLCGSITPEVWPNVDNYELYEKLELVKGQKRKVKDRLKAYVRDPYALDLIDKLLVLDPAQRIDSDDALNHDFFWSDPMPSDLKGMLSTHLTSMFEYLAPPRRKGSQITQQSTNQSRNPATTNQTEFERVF
CAMK1D (human), sequence (Q8IU85 whole entry, looked up): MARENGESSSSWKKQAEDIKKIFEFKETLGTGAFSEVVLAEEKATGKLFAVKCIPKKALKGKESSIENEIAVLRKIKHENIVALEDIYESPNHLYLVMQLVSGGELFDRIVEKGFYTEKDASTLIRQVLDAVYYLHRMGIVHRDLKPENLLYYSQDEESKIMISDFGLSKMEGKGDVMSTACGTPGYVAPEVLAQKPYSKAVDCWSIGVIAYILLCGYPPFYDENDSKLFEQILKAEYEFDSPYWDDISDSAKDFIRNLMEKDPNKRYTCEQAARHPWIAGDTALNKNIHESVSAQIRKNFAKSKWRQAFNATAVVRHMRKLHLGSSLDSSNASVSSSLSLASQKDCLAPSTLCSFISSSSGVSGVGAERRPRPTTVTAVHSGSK
GRK5 (human), sequence (P34947 whole entry, looked up): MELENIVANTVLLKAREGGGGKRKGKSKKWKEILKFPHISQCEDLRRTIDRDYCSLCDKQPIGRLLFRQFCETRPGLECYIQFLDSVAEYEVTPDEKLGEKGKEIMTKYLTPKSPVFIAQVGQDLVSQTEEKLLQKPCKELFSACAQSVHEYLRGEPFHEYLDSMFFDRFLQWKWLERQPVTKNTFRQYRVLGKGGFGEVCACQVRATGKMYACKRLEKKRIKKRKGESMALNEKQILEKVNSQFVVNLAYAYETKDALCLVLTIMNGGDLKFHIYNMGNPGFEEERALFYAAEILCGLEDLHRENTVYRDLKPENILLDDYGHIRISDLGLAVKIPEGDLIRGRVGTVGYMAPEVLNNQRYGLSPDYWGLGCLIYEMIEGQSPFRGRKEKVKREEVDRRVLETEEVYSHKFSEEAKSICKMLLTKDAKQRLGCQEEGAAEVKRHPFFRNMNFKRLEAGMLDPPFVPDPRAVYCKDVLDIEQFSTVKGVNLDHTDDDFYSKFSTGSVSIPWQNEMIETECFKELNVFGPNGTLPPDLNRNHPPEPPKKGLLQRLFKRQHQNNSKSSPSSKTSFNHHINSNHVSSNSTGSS
PAK2 (human), sequence (Q13177 whole entry, looked up): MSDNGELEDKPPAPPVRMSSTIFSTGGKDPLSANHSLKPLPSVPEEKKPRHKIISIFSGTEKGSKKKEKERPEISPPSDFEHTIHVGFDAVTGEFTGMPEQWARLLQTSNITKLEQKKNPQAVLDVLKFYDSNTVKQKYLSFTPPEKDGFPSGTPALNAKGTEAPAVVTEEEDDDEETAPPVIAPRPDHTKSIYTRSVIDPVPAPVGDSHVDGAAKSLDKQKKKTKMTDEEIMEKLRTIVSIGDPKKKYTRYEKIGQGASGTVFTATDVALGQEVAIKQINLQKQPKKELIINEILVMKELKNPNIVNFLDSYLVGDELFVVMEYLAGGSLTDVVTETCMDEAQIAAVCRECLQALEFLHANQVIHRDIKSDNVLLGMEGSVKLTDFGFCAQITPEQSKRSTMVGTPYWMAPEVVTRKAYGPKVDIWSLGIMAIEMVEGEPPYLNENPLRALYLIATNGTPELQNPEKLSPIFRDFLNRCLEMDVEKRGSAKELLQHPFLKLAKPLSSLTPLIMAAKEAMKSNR
NTRK2 (human), sequence (Q16620 whole entry, looked up): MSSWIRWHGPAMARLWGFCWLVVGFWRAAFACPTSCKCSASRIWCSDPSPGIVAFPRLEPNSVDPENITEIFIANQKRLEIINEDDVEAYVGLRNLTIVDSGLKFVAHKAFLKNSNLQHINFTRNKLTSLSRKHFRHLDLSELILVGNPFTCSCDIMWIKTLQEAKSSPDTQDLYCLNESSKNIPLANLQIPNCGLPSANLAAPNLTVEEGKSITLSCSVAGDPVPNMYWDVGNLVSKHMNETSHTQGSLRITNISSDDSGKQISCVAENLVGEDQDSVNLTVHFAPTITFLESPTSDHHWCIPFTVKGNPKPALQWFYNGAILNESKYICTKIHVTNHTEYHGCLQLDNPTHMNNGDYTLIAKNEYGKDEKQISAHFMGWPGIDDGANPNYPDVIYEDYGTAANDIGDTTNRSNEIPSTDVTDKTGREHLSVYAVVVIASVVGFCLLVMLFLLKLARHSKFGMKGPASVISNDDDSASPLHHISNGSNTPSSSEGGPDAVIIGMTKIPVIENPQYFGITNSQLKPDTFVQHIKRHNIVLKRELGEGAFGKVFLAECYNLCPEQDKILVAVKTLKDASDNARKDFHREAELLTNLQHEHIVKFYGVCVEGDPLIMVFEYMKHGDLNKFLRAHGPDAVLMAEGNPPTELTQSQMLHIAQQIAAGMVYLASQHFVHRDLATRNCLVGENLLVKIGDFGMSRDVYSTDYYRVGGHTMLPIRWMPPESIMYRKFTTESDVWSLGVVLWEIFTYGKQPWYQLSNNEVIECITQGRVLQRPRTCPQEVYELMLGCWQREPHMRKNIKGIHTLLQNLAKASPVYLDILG
GSK3B (human), sequence (P49841 whole entry, looked up): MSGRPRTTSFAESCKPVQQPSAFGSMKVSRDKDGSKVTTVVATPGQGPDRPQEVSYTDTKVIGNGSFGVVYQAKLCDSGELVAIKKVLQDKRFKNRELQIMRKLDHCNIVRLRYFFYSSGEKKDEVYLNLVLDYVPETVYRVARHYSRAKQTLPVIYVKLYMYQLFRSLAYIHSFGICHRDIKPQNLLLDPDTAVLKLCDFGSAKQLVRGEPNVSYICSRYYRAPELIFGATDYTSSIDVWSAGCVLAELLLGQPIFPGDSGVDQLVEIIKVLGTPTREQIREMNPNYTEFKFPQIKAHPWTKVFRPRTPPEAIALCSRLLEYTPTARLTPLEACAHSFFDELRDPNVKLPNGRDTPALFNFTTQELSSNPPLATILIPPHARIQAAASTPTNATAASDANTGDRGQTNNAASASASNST
JAK3 JH1 JH2 (human), sequence (P52333 whole entry, looked up): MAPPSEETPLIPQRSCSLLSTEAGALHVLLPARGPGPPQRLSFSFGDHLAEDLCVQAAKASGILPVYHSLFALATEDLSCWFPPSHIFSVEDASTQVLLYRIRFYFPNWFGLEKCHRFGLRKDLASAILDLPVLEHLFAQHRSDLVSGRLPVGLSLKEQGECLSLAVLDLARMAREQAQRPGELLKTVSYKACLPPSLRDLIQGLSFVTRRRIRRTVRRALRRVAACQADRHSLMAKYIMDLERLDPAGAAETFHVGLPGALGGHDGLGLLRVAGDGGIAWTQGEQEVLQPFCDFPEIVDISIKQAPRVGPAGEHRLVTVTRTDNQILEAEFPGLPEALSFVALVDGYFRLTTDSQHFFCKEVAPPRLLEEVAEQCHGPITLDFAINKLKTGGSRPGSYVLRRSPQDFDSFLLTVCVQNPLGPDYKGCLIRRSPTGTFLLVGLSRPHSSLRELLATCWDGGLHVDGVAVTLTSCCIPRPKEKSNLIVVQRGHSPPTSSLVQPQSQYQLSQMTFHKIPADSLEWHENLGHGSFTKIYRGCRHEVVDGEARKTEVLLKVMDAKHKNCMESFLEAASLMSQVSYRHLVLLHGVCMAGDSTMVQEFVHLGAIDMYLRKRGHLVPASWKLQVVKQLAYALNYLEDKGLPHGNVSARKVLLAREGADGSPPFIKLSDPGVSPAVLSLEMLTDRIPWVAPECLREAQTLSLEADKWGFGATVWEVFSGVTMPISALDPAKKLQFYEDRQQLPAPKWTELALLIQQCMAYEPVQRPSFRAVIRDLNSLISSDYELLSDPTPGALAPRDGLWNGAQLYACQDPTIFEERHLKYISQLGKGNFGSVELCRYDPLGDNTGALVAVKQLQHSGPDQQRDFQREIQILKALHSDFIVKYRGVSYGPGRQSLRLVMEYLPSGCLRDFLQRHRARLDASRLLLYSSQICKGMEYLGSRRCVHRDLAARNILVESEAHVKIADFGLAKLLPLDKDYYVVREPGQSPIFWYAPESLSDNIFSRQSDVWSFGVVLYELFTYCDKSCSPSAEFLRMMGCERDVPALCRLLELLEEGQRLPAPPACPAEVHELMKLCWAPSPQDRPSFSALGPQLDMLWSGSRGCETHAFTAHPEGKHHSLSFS

For O=C1Nc2ccc(Cl)cc2/C1=C/c1cc(Cl)c(O)c(Cl)c1, the residual activity (ABL2 (human)) was 80.4%, the residual activity (ACVRL1 (human)) was 96.4% and the residual activity (CAMK1D (human)) was 104%. The residual activity (CDC42BPB (human)) was 91.4%, the residual activity (CDK7 CCNH MNAT1 (human)) was 96.7% and the residual activity (CDK9 CCNK (human)) was 79.4%. The residual activity (CDK9 CCNT1 (human)) was 95.2%, the residual activity (CSNK1G3 (human)) was 93% and the residual activity (DAPK2 (human)) was 135%. For the same compound, the residual activity (DSTYK (human)) was 89.6%, the residual activity (DYRK1B (human)) was 90.9% and the residual activity (DYRK4 (human)) was 95.7%. For the same compound, the residual activity (EPHA6 (human)) was 72.8%, the residual activity (FGFR4 (human)) was 98% and the residual activity (FLT3 (human)) was 26.5%. It also gave a residual activity (GRK5 (human)) of 95.8%, a residual activity (GSK3B (human)) of 80.8% and a residual activity (JAK2 JH1 JH2 (human)) of 91.1%. The residual activity (JAK3 JH1 JH2 (human)) was 100%, the residual activity (LIMK1 (human)) was 83.7% and the residual activity (MAP2K1 (human)) was 96.8%. It also gave a residual activity (MAP3K10 (human)) of 86.8%, a residual activity (MAPKAPK5 (human)) of 92.4% and a residual activity (MARK1 (human)) of 89.5%. The residual activity (MERTK (human)) was 88.4%, the residual activity (NTRK2 (human)) was 61.1% and the residual activity (NUAK1 (human)) was 72.5%. It also gave a residual activity (PAK1 (human)) of 97.2%, a residual activity (PAK2 (human)) of 96.8% and a residual activity (PBK (human)) of 86.1%. The residual activity (PDPK1 (human)) was 103%, the residual activity (PLK3 (human)) was 98.2% and the residual activity (PNCK (human)) was 94.2%. It also gave a residual activity (PRKCD (human)) of 86.7%, a residual activity (PRKCE (human)) of 100% and a residual activity (PRKG2 (human)) of 97%. For the same compound, the residual activity (SRPK1 (human)) was 106%, the residual activity (TAOK2 (human)) was 81.3% and the residual activity (TGFBR2 (human)) was 94.9%. For the same compound, the residual activity [1] was 26.9% and the residual activity (YES1 (human)) was 78.3%.
In the case of CNc1cc2c(Nc3cccc(Br)c3)ncnc2cn1, the residual activity (ABL2 (human)) was 84.8%, the residual activity (ACVRL1 (human)) was 90.6% and the residual activity (CAMK1D (human)) was 92.5%. The residual activity (CDC42BPB (human)) was 107%, the residual activity (CDK7 CCNH MNAT1 (human)) was 102% and the residual activity (CDK9 CCNK (human)) was 105%. For the same compound, the residual activity (CDK9 CCNT1 (human)) was 106%, the residual activity (CSNK1G3 (human)) was 86.3% and the residual activity (DAPK2 (human)) was 136%. For the same compound, the residual activity (DSTYK (human)) was 94.1%, the residual activity (DYRK1B (human)) was 92.3% and the residual activity (DYRK4 (human)) was 87.5%. For the same compound, the residual activity (EPHA6 (human)) was 70%, the residual activity (FGFR4 (human)) was 93.7% and the residual activity (FLT3 (human)) was 71.2%. It also gave a residual activity (GRK5 (human)) of 120%, a residual activity (GSK3B (human)) of 89.6% and a residual activity (JAK2 JH1 JH2 (human)) of 82.1%. It also gave a residual activity (JAK3 JH1 JH2 (human)) of 103%, a residual activity (LIMK1 (human)) of 95.9% and a residual activity (MAP2K1 (human)) of 74.6%. For the same compound, the residual activity (MAP3K10 (human)) was 90.1%, the residual activity (MAPKAPK5 (human)) was 99.3% and the residual activity (MARK1 (human)) was 96.1%. For the same compound, the residual activity (MERTK (human)) was 87.5%, the residual activity (NTRK2 (human)) was 94.3% and the residual activity (NUAK1 (human)) was 97.5%. For the same compound, the residual activity (PAK1 (human)) was 94.9%, the residual activity (PAK2 (human)) was 92.7% and the residual activity (PBK (human)) was 102%. It also gave a residual activity (PDPK1 (human)) of 97.7%, a residual activity (PLK3 (human)) of 96.4% and a residual activity (PNCK (human)) of 100%. The residual activity (PRKCD (human)) was 94.7%, the residual activity (PRKCE (human)) was 99.8% and the residual activity (PRKG2 (human)) was 102%. It also gave a residual activity (SRPK1 (human)) of 90.7%, a residual activity (TAOK2 (human)) of 95.3% and a residual activity (TGFBR2 (human)) of 105%. It also gave a residual activity [1] of 80.8% and a residual activity (YES1 (human)) of 74.7%.
